Results as given in patent US6713436B1, “1-cycloalkylpyrazolyl-benzoyl derivatives” (BASF Aktiengesellschaft, priority 1999, dated 2004).

Legend:
[1] = tested on: Chenopodium album; assay: greenhouse post-emergence herbicidal test; format: in vivo; conditions: Chenopodium album (lamb's-quarters), application rates of 0.5 or 0.25 kg/ha
Text: (§1) The seeds of the test plants were sown separately for each species. For the post-emergence treatment, the test plants were first grown to a height of 3 to 15 cm, depending on the plant habit, and only then treated with the active compounds which had been suspended or emulsified in water. The test plants were for this purpose either sown directly and grown in the same containers, or they were first grown separately as seedlings and transplanted into the test containers a few days prior to treatment. The application rate for the post-emergence treatment was 0.5 or 0.25 kg of a.s. (active substance)/ha. Depending on the species, the plants were kept at 10-25° C. or 20-35° C. The test period extended over 2 to 4 weeks. During this time, the plants were tended, and their response to the individual treatments was evaluated. The evaluation was carried out using a scale from 0 to 100. 100 means no emergence of the plants, or complete destruction of at least the aerial parts and 0 means no damage, or normal course of growth. The plants used in the greenhouse experiments were of the following species: [table]

[2] = tested on: Brachiaria plantaginea; assay: greenhouse post-emergence herbicidal test; format: in vivo; conditions: Brachiaria plantaginea (alexander grass), application rates of 0.5 or 0.25 kg/ha
Text: as §1

[3] = tested on: Polygonum persicaria; assay: greenhouse post-emergence herbicidal test; format: in vivo; conditions: Polygonum persicaria (lady's-thumb), application rates of 0.5 or 0.25 kg/ha
Text: as §1

[4] = tested on: Echinochloa crus-galli; assay: greenhouse post-emergence herbicidal test; format: in vivo; conditions: Echinochloa crus-galli (barnyard grass), application rates of 0.5 or 0.25 kg/ha
Text: as §1

melting point: 135 to 140 °C
SMILES: Cc1c(C(=O)c2cnn(C3CCCC3)c2O)ccc(S(C)(=O)=O)c1C1=NOCC1 [compound 4.6, 4-[2-Methyl-3-(4,5-dihydroisoxazol-3-yl)-4-methylsulfonylbenzoyl]-1-cyclopentyl-5-hydroxy-1H-pyrazole]
post-emergence action [1]: very good | post-emergence action [2]: very good | post-emergence action [3]: very good | post-emergence action [4]: very good
